For assay [1], the target named is Aryl hydrocarbon receptor (Homo sapiens, UniProt P35869). Description: Luminescence-based cell-based high throughput dose response assay for activators of the Aryl Hydrocarbon Receptor (AHR). [Related pubchem assays: 2796 (Primary screen (AHR activators in singlicate)), 2845 (Confirmation screen (AHR activators in triplicate)), 434939 (Counterscreen (PXR activators in triplicate)), 2804 (Summary (AHR activators))]. It counts as ADME.

Assay [2] in a line: Vero E6 cell cytotoxicity, dose response, cytotoxicity control for non-replicating M. tuberculosis project, secondary assay (AID 492998). Format: functional, VeroE6. As to conditions: Vero C1008.
Assay [3] is described as follows: THP-1 cell cytotoxicity, dose response, cytotoxicity control for non-replicating M. tuberculosis project (AID 489025). Format: functional.
A short description of a further assay: cells. Format: functional.
A short description of assay [4]: microbe, parasite or virus in culture. It counts as functional. Conditions: Mycobacterium tuberculosis.
Assay [5] concerns the target Neuropeptide Y receptor type 2 (Homo sapiens, UniProt P49146). Description: NPY-Y2 antagonist potency, selectivity check, dose response, counter-screen for NPY-Y1 antagonist project, cell-based (AID 1278). It counts as functional.
The nature of assay [6]: P. falciparum Dd2 growth inhibitors, dose response, SYBR Green, dry powder samples, set 9 (AID 1159568). It counts as functional, cell-based.
For assay [7], the target named is G-protein coupled receptor 183 (Homo sapiens, UniProt P32249). In words: SAR confirmation of small molecule antagonists of the EBI2 receptor via a luminescent beta-arrestin assa. Format: functional.
A further assay deals with Phospholipase D1 (Homo sapiens, UniProt Q13393). In words: PLD1 Cellular Concentration Response Study. It counts as functional.
For the next assay, the target named is Phospholipase D2 (Homo sapiens, UniProt O14939). In words: PLD2 Cellular Concentration Response Study. Format: functional.
Assay [8] has as its target SWI/SNF-related matrix-associated actin-dependent regulator of chromatin subfamily A member 2 (Homo sapiens, UniProt P51531). In words: Luminescence-based cell-based high throughput dose response assay to identify activators of the function of SWI/SNF related, matrix associated, actin dependent regulator of chromatin, subfamily a, member 2 (SMARCA2, BRM). It counts as functional.

In a further assay the target is Nonstructural protein 1 (Influenza A virus, UniProt Q194T2). Format: functional, Influenza A virus (A/California/07/2009(H1N1)).
Assay [9] concerns the target T1, Heat shock factor protein 1 (Mus musculus, UniProt P38532).
T1 sequence (P38532 whole entry): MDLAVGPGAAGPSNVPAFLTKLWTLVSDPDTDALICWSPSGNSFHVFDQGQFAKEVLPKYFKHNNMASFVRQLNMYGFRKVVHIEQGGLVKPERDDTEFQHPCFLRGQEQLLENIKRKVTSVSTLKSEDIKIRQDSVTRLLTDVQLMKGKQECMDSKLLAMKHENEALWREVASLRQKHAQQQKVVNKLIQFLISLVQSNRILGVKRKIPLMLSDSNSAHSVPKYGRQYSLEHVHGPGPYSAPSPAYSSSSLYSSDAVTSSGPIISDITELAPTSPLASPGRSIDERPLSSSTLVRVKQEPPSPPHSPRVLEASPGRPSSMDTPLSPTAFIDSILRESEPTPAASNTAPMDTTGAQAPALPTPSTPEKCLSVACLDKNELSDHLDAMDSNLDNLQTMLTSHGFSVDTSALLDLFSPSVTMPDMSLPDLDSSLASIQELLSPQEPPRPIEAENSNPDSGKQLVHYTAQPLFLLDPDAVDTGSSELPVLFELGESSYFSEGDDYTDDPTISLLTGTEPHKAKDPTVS
In words: HSF1 potentiators in luciferase reporter cells, confirmation, cell-based, NIH3T3, luminescence, dose retest (AID 435004).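 Also: stress induced by proteasome inhibitor MG132 added 30 min after compound; luciferase reporter driven by HSF1 response element in NIH3T3 cells; actives raise luminescence as potentiators of the MG132 stress response.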 Format: functional.

The target of assay [10] is T2, Fibrinogen beta chain (Homo sapiens, UniProt P02675). In words: Fluorescence polarization-based biochemical high throughput dose response assay to identify inhibitors that disrupt the binding of a cyclic peptide (Tn6) to the fibrin proteolytic product D-Dimer and fragment E complex [DD(E )].
Assay [11] has as its target Peroxisome proliferator-activated receptor gamma/Nuclear receptor coactivator 3 (Homo sapiens, UniProt P37231). In words: TR-FRET dose response biochemical High Throughput Screening assay for agonists of the steroid receptor coactivator 3 (SRC-3) recruitment by the peroxisome proliferator-activated receptor gamma (PPAR gamma): non-selective agonists. [Related pubchem assays: 1301 (Confirmation screen.), 1048 (Primary screen.)]. It counts as functional.

For assay [12], the target named is T2, Fibrinogen beta chain. In words: Fluorescence polarization-based biochemical high throughput dose response assay to identify inhibitors that disrupt the binding of a cyclic peptide (Tn7) to the fibrin proteolytic product D-Dimer and fragment E complex [DD(E )].
Assay [13] addresses Peroxisome proliferator-activated receptor gamma/Nuclear receptor coactivator 1 (Homo sapiens, UniProt P37231). In words: TR-FRET dose response biochemical High Throughput Screening assay for agonists of the steroid receptor coactivator 1 (SRC-1) recruitment by the peroxisome proliferator-activated receptor gamma (PPAR gamma): non-selective agonists. [Related pubchem assays (depositor defined):AID1300, AID1808, AID504735, AID631]. It counts as protein assay.

Assay [14] can be described thus: Counterscreen for activators of the function of SWI/SNF related, matrix associated, actin dependent regulator of chromatin, subfamily a, member 2 (SMARCA2, BRM): Luminescence-based cell-based high throughput dose response assay to identify non-selective compounds using the VP16 reporter assay. It counts as functional.
The target of assay [15] is Peroxisome proliferator-activated receptor gamma/Nuclear receptor coactivator 2 (Homo sapiens, UniProt P37231). Description: TR-FRET dose response biochemical High Throughput Screening assay for agonists of the steroid receptor coactivator 2 (SRC-2) recruitment by the peroxisome proliferator-activated receptor gamma (PPAR gamma): non-selective agonists. [Related pubchem assays: 1297, 1032 ]. It counts as functional.

Assay [16] is described as follows: cytotoxicity toward HT-29 cells – cell-based, CellTiter-Glo luminescence, IC50, dose response (AID 1117330). It counts as functional.
A short description of assay [17]: Concentration-dependent survival of SW480 colon cancer line, luminescence detection with CellTiter-Glo, half-maximal inhibitory concentration (AID 1117338). It counts as functional.
Assay [18] is described as follows: SNU-C1 cell viability reduction, dose response, CellTiter-Glo luminescence (AID 1117323). It counts as functional, cell-based.
Assay [19] is described as follows: cytotoxicity toward HCT116 cells – cell-based, CellTiter-Glo luminescence, IC50, dose response (AID 1117332). Format: functional. Conditions: HCT-116.
The nature of assay [20]: CellTiter-Glo luminescent dose response of DLD-1 viability loss (AID 1117352). It counts as functional.
A short description of assay [21]: cytotoxicity toward Colo320 cells – cell-based, CellTiter-Glo luminescence, IC50, dose response (AID 1117334). Format: functional. As to conditions: COLO 320.
Assay [22] in a line: HCT116 cell viability decrease, GSK3B pretreatment – CellTiter-Glo, IC50, dose response (AID 1117339). Format: functional. As to conditions: HCT-116.
A short description of assay [23]: RKO cell viability reduction, dose response, CellTiter-Glo luminescence (AID 1117322). It counts as functional.
Assay [24] is described as follows: HeLa 4N DNA content increase, dose response, cell-based, IC50 (AID 1117351). Format: functional.
A short description of assay [25]: HeLa 2N DNA content increase, dose response, cell-based, IC50 (AID 1117349). It counts as functional.

The results in this text go back to ChEMBL document CHEMBL1201862, “PubChem BioAssay data set” (2004).

Structures are written as SMILES. Calls of active or inactive are those of the source.

T2 sequence (P02675 whole entry, the tested form may be a part): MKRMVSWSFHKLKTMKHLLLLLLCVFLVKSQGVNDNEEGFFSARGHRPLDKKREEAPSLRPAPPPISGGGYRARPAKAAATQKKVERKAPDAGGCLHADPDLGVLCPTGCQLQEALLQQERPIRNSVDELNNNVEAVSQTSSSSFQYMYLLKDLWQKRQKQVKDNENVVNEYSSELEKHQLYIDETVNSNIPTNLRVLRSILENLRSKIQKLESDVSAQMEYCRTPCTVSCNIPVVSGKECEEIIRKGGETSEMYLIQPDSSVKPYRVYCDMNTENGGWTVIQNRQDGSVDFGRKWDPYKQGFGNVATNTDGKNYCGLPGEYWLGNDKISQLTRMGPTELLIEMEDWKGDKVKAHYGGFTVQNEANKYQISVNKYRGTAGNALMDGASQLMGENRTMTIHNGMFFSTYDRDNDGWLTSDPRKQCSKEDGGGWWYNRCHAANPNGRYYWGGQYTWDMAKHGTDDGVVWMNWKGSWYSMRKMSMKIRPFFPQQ
Sequence of Phospholipase D2 (O14939 whole entry): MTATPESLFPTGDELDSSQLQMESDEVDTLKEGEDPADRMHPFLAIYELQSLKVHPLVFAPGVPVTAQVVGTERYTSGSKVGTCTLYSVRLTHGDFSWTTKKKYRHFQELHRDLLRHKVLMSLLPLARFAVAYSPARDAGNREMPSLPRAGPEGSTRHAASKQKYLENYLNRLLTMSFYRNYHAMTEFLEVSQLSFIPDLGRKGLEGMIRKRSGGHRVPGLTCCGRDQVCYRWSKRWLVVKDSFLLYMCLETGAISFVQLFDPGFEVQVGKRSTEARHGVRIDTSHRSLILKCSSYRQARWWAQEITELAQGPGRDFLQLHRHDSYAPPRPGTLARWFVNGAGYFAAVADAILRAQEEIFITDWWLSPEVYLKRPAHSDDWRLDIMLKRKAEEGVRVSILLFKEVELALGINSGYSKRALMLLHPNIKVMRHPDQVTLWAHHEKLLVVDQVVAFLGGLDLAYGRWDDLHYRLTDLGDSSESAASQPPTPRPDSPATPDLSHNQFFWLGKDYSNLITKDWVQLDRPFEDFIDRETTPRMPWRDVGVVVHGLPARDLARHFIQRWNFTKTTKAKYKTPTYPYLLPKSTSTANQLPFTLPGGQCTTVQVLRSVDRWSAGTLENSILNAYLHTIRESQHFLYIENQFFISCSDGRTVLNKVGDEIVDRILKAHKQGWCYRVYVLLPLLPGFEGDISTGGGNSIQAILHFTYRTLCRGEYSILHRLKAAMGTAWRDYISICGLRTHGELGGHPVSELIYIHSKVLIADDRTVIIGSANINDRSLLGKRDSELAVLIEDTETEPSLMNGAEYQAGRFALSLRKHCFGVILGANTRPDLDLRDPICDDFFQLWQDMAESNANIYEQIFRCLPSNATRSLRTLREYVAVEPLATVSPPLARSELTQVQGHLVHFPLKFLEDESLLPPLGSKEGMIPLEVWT
Sequence of SWI/SNF-related matrix-associated actin-dependent regulator of chromatin subfamily A member 2 (P51531 whole entry): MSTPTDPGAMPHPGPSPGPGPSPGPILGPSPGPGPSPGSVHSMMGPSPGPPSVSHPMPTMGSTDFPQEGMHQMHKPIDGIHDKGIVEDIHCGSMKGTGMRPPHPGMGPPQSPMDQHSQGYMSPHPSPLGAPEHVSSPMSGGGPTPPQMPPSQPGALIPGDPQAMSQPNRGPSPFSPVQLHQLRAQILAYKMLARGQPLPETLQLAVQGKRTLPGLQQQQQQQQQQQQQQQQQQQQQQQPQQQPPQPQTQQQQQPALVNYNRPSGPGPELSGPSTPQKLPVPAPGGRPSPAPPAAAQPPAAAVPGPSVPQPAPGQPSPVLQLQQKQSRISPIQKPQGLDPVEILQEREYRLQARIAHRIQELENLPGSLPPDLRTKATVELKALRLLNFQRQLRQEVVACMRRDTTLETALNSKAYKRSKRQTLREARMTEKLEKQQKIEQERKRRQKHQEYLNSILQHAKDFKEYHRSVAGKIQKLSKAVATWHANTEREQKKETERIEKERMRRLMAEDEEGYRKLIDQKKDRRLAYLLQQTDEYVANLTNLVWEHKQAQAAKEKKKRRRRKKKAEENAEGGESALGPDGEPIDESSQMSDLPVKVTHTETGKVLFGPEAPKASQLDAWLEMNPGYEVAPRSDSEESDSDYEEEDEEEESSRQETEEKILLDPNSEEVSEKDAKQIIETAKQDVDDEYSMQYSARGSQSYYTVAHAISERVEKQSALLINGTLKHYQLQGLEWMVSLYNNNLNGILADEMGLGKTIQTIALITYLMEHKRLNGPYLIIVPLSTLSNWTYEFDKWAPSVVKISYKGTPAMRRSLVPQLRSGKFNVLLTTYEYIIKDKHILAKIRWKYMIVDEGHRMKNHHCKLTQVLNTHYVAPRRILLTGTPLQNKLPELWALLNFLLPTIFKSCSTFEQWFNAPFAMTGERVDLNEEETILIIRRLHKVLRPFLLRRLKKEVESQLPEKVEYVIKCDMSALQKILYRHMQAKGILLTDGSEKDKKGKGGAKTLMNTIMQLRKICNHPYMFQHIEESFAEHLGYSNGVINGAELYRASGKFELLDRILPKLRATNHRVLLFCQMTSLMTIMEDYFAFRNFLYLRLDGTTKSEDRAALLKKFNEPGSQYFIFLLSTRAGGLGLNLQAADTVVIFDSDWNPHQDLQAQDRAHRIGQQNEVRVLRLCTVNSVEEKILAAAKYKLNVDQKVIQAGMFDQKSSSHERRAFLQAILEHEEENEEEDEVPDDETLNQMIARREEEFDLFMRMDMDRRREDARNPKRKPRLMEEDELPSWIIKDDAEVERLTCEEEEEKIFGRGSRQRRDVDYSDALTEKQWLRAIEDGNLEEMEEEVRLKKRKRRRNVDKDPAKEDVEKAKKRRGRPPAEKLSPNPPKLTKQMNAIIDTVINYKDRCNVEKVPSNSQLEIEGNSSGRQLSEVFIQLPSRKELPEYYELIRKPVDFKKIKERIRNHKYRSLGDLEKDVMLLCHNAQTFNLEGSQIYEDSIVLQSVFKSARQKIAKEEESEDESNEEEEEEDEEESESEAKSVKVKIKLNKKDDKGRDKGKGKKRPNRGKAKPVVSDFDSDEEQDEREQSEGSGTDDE
Sequence of Nonstructural protein 1 (Q194T2 whole entry): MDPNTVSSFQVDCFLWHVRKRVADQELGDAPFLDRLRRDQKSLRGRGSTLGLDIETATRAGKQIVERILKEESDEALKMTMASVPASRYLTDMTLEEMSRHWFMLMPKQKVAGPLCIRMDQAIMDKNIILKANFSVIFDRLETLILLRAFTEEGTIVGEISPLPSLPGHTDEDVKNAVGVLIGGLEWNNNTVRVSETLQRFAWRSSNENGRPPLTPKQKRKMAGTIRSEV
Sequence of G-protein coupled receptor 183 (P32249 whole entry): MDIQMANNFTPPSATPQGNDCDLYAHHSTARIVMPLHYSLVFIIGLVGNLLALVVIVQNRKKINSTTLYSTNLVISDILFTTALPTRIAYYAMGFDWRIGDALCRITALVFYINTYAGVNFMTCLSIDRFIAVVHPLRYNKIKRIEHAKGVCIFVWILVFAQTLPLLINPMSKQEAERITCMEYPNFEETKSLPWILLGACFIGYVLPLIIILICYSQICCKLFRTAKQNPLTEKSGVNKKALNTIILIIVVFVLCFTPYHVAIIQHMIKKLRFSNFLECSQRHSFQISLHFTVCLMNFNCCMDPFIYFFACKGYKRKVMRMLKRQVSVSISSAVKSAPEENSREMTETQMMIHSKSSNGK
Sequence of Neuropeptide Y receptor type 2 (P49146 whole entry): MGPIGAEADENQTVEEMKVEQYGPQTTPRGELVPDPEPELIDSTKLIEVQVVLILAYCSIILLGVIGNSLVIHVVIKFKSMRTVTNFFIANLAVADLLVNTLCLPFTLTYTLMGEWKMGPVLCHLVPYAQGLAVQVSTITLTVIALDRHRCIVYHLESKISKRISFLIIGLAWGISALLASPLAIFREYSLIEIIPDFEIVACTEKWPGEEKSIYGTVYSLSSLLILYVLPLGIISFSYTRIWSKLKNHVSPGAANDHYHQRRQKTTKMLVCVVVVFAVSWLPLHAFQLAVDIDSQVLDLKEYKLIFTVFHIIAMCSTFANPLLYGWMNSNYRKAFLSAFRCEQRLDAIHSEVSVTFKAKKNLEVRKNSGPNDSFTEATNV
Sequence of Phospholipase D1 (Q13393 whole entry): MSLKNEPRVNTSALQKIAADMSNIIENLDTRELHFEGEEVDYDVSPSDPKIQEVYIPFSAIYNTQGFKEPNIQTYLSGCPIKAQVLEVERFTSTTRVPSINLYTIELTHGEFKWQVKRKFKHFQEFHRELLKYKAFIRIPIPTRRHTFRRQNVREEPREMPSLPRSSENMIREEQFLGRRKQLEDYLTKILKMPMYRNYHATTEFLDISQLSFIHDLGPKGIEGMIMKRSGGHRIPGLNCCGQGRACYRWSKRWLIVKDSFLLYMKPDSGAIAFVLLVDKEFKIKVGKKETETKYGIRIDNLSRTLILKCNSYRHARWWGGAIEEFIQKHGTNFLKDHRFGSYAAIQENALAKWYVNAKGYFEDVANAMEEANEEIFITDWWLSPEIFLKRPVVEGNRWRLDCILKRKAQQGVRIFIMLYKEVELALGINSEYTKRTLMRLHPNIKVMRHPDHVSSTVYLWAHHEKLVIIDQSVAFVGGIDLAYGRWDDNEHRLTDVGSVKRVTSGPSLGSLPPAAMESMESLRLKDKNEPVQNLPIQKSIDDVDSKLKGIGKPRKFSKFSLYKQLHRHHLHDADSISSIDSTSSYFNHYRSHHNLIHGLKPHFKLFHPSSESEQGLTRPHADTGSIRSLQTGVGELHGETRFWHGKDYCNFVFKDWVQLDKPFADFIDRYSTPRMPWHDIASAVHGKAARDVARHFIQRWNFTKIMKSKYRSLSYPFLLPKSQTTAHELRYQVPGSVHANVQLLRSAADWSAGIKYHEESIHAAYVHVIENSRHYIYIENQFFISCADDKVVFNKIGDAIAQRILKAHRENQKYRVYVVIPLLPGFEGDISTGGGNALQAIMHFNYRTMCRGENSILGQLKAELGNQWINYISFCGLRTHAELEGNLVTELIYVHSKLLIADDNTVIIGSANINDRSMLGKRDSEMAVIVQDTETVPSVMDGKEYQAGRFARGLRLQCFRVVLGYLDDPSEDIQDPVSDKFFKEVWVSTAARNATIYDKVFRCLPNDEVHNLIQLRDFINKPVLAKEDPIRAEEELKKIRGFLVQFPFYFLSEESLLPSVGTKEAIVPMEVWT

Turning to `O=[N+]([O-])c1cc(-c2nc(-c3ccncc3)no2)cc([N+](=O)[O-])c1`, the EC50 in assay [1] is 2.67 µM (active). Moreover, the CC50 in assay [2] is > 20 µM (active); in assay [3] it was 37.5 µM (active); in [4], > 40 µM (active). Also, the IC50 in “cells” was 3.13 µM (active).

`CC(C)CC(c1nnnn1C1CCCC1)N1CCN(c2ccccc2F)CC1` (centres undefined): the IC50 in [5] is 24.4 µM (not active).

With `C[C@H](CO)N1C[C@H](C)[C@@H](CN(C)S(=O)(=O)c2ccc(F)cc2)OCCCC[C@H](C)Oc2ccc(N(C)C)cc2C1=O`, the AC50 in [6] was 5.9 µM (active).

In the case of `COc1ccc(S(=O)(=O)N2CCN(C(=O)/C=C/c3ccc(F)cc3)CC2)cc1`, the IC50 in [7] is 12.1 nM (active).

Consider `O=C(NCCN1CCC2(CC1)C(=O)NCN2C(=O)c1cccc(F)c1)c1ccc2ccccc2c1`, for which the IC50 was 8.76 µM (active) at Phospholipase D1 and 2.75 µM (active) at Phospholipase D2.

Consider `COc1ccc(N)c2c1C(=O)c1ccccc1C2=O`, for which the EC50 was > 91.1 µM (inactive) in assay [8]; > 260 µM (inactive) in assay [9]; 119 µM (not active) in [11]; 20.2 µM (inactive) in assay [13]; > 91.1 µM (inactive) in assay [14]; 10.7 µM (not active) in [15]. The IC50 at Nonstructural protein 1 is 31 µM (active); at Fibrinogen beta chain [10] it was 4.98 µM (active); on Fibrinogen beta chain [12], > 83.2 µM (inactive).

As to `ClC1=C(Cl)C2(Cl)C(CBr)CC1(Cl)C2(Cl)Cl` (centres undefined) [BROMOCICLEN], the IC50 in assay [16], in assay [17], in assay [18], in assay [19], in assay [20] and in assay [21] was > 20 µM (inactive) in each case. Also, the IC50 in assay [22] and in [23] was > 20 µM (inactive) each time.

On to `C=C(C)[C@H]1Cc2c(ccc3c2O[C@@H]2COc4cc(OC)c(OC)cc4[C@@H]2C3=O)O1` [ROTENONE], for which the IC50 in assay [24] and in assay [25] was 311 nM (active) in each case.
